{"source": "patent US8163777B2", "about": "“Benzimidazolyl-pyridine compounds for inflammation and immune-related uses” (Synta Pharmaceuticals Corp., priority 2006, dated 2012)", "tested_on": "IL-2, IL-4, IL-5, IL-13, GM-CSF, INF-γ and TNF-α", "experiment": "Inhibition of multiple cytokines in primary human PBMCs (summary statement)", "format": "cell-based", "conditions": "PHA-stimulated PBMCs", "protocol": "Cytokine production was measured using commercially available human ELISA assay kits (from Cell Science, Inc.) following the manufacturers instructions.", "data": [{"smiles": "COc1ccc2c(c1)nc(C(F)(F)F)n2-c1ccc(NC(=O)c2ccc3c(c2)OCO3)cc1", "note": "[Compound 75, Benzo[1,3]dioxole-5-carboxylic acid {N-[4-(2-trifluoromethyl-5-methoxy-benzoimidazol-1-yl)-phenyl]} amide]", "values": [{"measurement": "inhibition of IL-2, IL-4, IL-5, IL-13, GM-CSF, INF-γ and TNF-α (in words)", "value": "potent inhibitors"}]}]}
